According to patent US20250074891A1 (Anaxis Pharma Pty Ltd., priority 2021, published 2025):

Columns and labels:
RIP1 = RIP1 (Homo sapiens (Human), UniProt Q13546); assay: KINOMEscan binding assay, RIP1; conditions: Table 35
MLKL (full length) = MLKL (full length) (Homo sapiens (Human), UniProt Q8NB16); assay: KINOMEscan binding assay, MLKL (full length); conditions: Table 35
Description: Kinase assays. For most assays, kinase-tagged T7 phage strains were grown in parallel in 24-well blocks in an E. coli host derived from the BL21 strain. E. coli were grown to log-phase and infected with T7 phage from a frozen stock (multiplicity of infection=0.4) and incubated with shaking at 32° C. until lysis (90-150 minutes).
The Hill Slope was set to −1.

Sequence of MLKL (full length) (Q8NB16 whole entry): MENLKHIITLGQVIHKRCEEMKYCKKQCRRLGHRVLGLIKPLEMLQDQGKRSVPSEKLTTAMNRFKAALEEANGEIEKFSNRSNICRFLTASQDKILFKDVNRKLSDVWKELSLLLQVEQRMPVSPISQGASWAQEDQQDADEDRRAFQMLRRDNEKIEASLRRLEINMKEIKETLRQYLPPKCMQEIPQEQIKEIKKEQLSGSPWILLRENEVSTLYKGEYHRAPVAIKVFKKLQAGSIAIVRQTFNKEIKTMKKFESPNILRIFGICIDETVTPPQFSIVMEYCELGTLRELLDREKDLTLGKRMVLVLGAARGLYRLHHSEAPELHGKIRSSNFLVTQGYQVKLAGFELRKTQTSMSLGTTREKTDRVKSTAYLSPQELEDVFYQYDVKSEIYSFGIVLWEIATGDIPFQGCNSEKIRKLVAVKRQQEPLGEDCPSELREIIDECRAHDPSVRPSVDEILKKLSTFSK
Sequence of RIP1 (Q13546 whole entry): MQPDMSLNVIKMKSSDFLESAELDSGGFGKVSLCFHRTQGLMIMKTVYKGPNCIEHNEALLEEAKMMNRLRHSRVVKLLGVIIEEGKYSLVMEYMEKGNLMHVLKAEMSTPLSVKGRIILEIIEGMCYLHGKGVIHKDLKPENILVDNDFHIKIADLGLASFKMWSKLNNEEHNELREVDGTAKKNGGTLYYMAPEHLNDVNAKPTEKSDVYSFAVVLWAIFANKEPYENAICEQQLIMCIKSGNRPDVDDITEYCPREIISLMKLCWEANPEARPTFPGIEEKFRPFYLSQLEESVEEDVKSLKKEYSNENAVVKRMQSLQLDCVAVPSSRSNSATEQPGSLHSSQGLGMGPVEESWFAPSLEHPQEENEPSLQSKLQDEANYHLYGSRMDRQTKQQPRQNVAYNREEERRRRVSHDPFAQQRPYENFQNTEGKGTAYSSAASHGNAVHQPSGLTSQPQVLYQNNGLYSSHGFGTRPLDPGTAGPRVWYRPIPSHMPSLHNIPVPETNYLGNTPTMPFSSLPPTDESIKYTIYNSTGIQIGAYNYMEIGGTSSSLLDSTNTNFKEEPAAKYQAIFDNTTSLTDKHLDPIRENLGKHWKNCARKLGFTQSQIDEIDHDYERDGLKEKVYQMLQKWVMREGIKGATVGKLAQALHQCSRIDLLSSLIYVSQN

SMILES | Kd (RIP1) [µM] | Kd (MLKL (full length)) [µM]
CCS(=O)(=O)Nc1ccc(-c2n[nH]c(Nc3ccnc(OC)c3)c2C(N)=O)cc1OCc1ccc(F)cc1 [Compound 18, 3-(4-(ethylsulfonamido)-3-((4-fluorobenzyl)oxy)phenyl) 5-((2-methoxypyridin-4-yl)amino)-1H-pyrazole-4-carboxamide] | > 30 | < 0.01
CCS(=O)(=O)Nc1ccc(-c2n[nH]c(Nc3cccc(C(F)(F)F)n3)c2C(N)=O)cc1OCc1cccnc1 [Compound 33, 3-(4-(ethylsulfon-amido)-3-(pyridin-3-ylmethoxy)phenyl)-5-((6-(trifluoro-methyl)pyridin-2-yl)amino)-1H-pyrazole-4-carboxamide] | > 30 | –
NC(=O)c1c(-c2ccc(NS(=O)(=O)CC(F)(F)F)cc2)n[nH]c1Nc1cccc(C(F)(F)F)n1 [Compound 43, 3-(4-((2,2,2-trifluoroethyl)sulfonamido)phenyl)-5-((6-(trifluoromethyl)pyridin-2-yl)amino)-1H-pyrazole-4-carboxamide] | > 30 | < 0.01
NC(=O)c1c(-c2ccc(NS(=O)(=O)CC(F)F)cc2)n[nH]c1Nc1cccc(C(F)(F)F)n1 [Compound 49, 3-(4-((2,2-difluoroethyl)sulfonamido)phenyl)-5-((6-(trifluoromethyl)pyridin-2-yl)amino)-1H-pyrazole-4-carboxamide] | > 30 | < 0.01
NC(=O)c1c(-c2ccc(NS(=O)(=O)C3CC3)cc2)n[nH]c1Nc1cccc(C(F)(F)F)n1 [Compound 52, 3-(4-(cyclopropanesulfonamido)phenyl)-5-((6-(trifluoromethyl)pyridin-2-yl)amino)-1H-pyrazole-4-carboxamide] | > 30 | < 0.01
NC(=O)c1c(-c2ccc(NS(=O)(=O)C(F)F)cc2)n[nH]c1Nc1cccc(C(F)(F)F)n1 [Compound 53, 3-(4-((difluoromethyl)sulfonamido)phenyl)-5-((6-(trifluoromethyl)pyridin-2-yl)amino)-1H-pyrazole-4-carboxamide] | > 30 | < 0.01
CC(C)S(=O)(=O)Nc1ccc(-c2n[nH]c(Nc3cccc(C(F)(F)F)n3)c2C(N)=O)cc1 [Compound 54, 3-(4-((1-methylethyl)sulfonamido)phenyl)-5-((6-(trifluoromethyl)pyridin-2-yl)amino)-1H-pyrazole-4-carboxamide] | > 30 | < 0.01
NC(=O)c1c(-c2ccc(NS(=O)(=O)Cc3ccc(F)cc3)cc2)n[nH]c1Nc1cccc(C(F)(F)F)n1 [Compound 55, 3-(4-(((4-fluorophenyl)methyl)sulfonamido)phenyl)-5-((6-(trifluoromethyl)pyridin-2-yl)amino)-1H-pyrazole-4-carboxamide] | > 30 | –
NC(=O)c1c(-c2ccc(NS(=O)(=O)Cc3ccc(Cl)c(Cl)c3)cc2)n[nH]c1Nc1cccc(C(F)(F)F)n1 [Compound 56, 3-(4-((3,4-dichlorophenyl)methylsulfonamido)phenyl)-5-((6-(trifluoromethyl)pyridin-2-yl)amino)-1H-pyrazole-4-carboxamide] | > 30 | –
NC(=O)c1c(-c2ccc(NS(=O)(=O)Cc3ccccc3Cl)cc2)n[nH]c1Nc1cccc(C(F)(F)F)n1 [Compound 58, 3-(4-(((2-chlorophenyl)methyl)sulfonamido)phenyl)-5-((6-(trifluoromethyl)pyridin-2-yl)amino)-1H-pyrazole-4-carboxamide] | > 30 | –
CCS(=O)(=O)Nc1ccc(-c2n[nH]c(Nc3cnccn3)c2C(N)=O)cc1OC [Compound 61, 3-(4-(ethylsulfon-amido)-3-methoxy-phenyl)-5-(pyrazin-2-ylamino)-1H-pyrazole-4-carboxamide] | > 30 | –
CCS(=O)(=O)Nc1ccc(-c2n[nH]c(Nc3cnc(C(C)C)cn3)c2C(N)=O)cc1 [Compound 66, 3-(4-(ethylsulfonamido)phenyl)-5-((5-isopropylpyrazin-2-yl)amino)-1H-pyrazole-4-carboxamide] | > 30 | < 0.01
CC(C)S(=O)(=O)Nc1ccc(-c2n[nH]c(Nc3cnccn3)c2C(N)=O)cc1 [Compound 71, 3-(4-((1-methylethyl)sulfonamido)phenyl)-5-(pyrazin-2-ylamino)-1H-pyrazole-4-carboxamide] | > 30 | < 0.01
NC(=O)c1c(-c2ccc(NS(=O)(=O)C3CCCCC3)cc2)n[nH]c1Nc1cnccn1 [Compound 74, 3-(4-(cyclohexanesulfonamido)phenyl)-5-(pyrazin-2-ylamino)-1H-pyrazole-4-carboxamide] | > 30 | –
NC(=O)c1c(-c2ccc(NS(=O)(=O)Cc3ccccc3)cc2)n[nH]c1Nc1cnccn1 [Compound 77, 3-(4-((phenylmethyl)sulfonamido)phenyl)-5-(pyrazin-2-ylamino)-1H-pyrazole-4-carboxamide] | > 30 | –
CCS(=O)(=O)Nc1ccc(-c2n[nH]c(Nc3cc(C(F)(F)F)ccn3)c2C(N)=O)cc1 [Compound 85, 3-(4-(ethylsulfonamido)phenyl)-5-((4-(trifluoromethyl)pyridin-2-yl)amino)-1H-pyrazole-4-carboxamide] | > 30 | –
CCS(=O)(=O)Nc1ccc(-c2n[nH]c(Nc3ccc4ccccc4c3)c2C(N)=O)cc1 [Compound 86, 3-(4-(ethylsulfonamido)phenyl)-5-(naphthalen-2-ylamino)-1H-pyrazole-4-carboxamide] | > 30 | < 0.01

SMILES | Kd (RIP1) [µM] | Kd (MLKL (full length)) [µM]
CCS(=O)(=O)Nc1ccc(-c2n[nH]c(Nc3ccc(OC)cn3)c2C(N)=O)cc1 [Compound 88, 3-(4-(ethylsulfonamido)phenyl)-5-((5-methoxypyridin-2-yl)amino)-1H-pyrazole-4-carboxamide] | – | < 0.01
CCS(=O)(=O)Nc1ccc(-c2n[nH]c(Nc3ccc4ccccc4n3)c2C(N)=O)cc1 [Compound 89, 3-(4-(ethylsulfonamido)phenyl)-5-(quinolin-2-ylamino)-1H-pyrazole-4-carboxamide] | – | < 0.01
CCS(=O)(=O)Nc1ccc(-c2n[nH]c(Nc3cccc(C)n3)c2C(N)=O)cc1 [Compound 94, 3-(4-(ethylsulfonamido)phenyl)-5-((6-methylpyridin-2-yl)amino)-1H-pyrazole-4-carboxamide] | > 30 | –
CCS(=O)(=O)Nc1ccc(-c2n[nH]c(Nc3cccc(OC)n3)c2C(N)=O)cc1 [Compound 107, 3-(4-(ethylsulfonamido)phenyl)-5-((6-methoxypyridin-2-yl)amino)-1H-pyrazole-4-carboxamide] | > 30 | < 0.01
C#CCS(=O)(=O)Nc1ccc(-c2n[nH]c(Nc3ccnc(OCCOC)c3)c2C(N)=O)cc1 [Compound 109, 5-((2-(2-methoxyethoxy)pyridin-4-yl)amino)-3-(4-(prop-2-yn-1-ylsulfonamido)phenyl)-1H-pyrazole-4-carboxamide] | > 30 | < 0.01
COCCOc1cc(Nc2[nH]nc(-c3ccc(NS(=O)(=O)C(F)(F)F)cc3)c2C(N)=O)ccn1 [Compound 114, 5-((2-(2-methoxyethoxy)pyridin-4-yl)amino)-3-(4-((trifluoromethyl)sulfonamido)phenyl)-1H-pyrazole-4-carboxamide] | > 30 | < 0.01
CCS(=O)(=O)Nc1ccc(-c2n[nH]c(Nc3ccnc(OC)c3)c2C(N)=O)cc1 [Compound 121, 3-(4-(ethylsulfonamido)phenyl)-5-((2-methoxypyridin-4-yl)amino)-1H-pyrazole-4-carboxamide] | – | < 0.01
COCCOc1cc(Nc2[nH]nc(-c3ccc(NS(C)(=O)=O)cc3)c2C(N)=O)ccn1 [Compound 122, 5-((2-(2-methoxyethoxy)pyridin-4-yl)amino)-3-(4-(methylsulfonamido)phenyl)-1H-pyrazole-4-carboxamide] | > 30 | < 0.01
CCS(=O)(=O)Nc1ccc(-c2n[nH]c(Nc3cccc(OCCOC)n3)c2C(N)=O)cc1 [Compound 128, 3-(4-(ethylsulfonamido)phenyl)-5-((6-(2-methoxyethoxy)pyridin-2-yl)amino)-1H-pyrazole-4-carboxamide] | > 30 | –
NC(=O)c1c(-c2ccc(NS(=O)(=O)Cc3cccc(Cl)c3)cc2)n[nH]c1Nc1ccccn1 [Compound 129, 3-(4-(((3-chlorophenyl)methyl)sulfonamido)phenyl)-5-(pyridin-2-ylamino)-1H-pyrazole-4-carboxamide] | > 30 | –
NC(=O)c1c(-c2ccc(NS(=O)(=O)CCc3ccccc3)cc2)n[nH]c1Nc1ccccn1 [Compound 130, 3-(4-((2-phenylethyl)sulfonamido)phenyl)-5-(pyridin-2-ylamino)-1H-pyrazole-4-carboxamide] | > 30 | –
CCS(=O)(=O)Nc1ccc(-c2n[nH]c(Nc3ccccn3)c2C(N)=O)cc1 [Compound 131, 3-(4-(ethylsulfonamido)phenyl)-5-(pyridin-2-ylamino)-1H-pyrazole-4-carboxamide] | > 30 | < 0.01
NC(=O)c1c(-c2ccc(NS(=O)(=O)c3ccccc3)cc2)n[nH]c1Nc1ccccn1 [Compound 133, 3-(4-(phenylsulfonamido)phenyl)-5-(pyridin-2-ylamino)-1H-pyrazole-4-carboxamide] | > 30 | –
NC(=O)c1c(-c2ccc(NS(=O)(=O)CC3CCC3)cc2)n[nH]c1Nc1ccccn1 [Compound 134] | > 30 | –
CCS(=O)(=O)Nc1ccc(-c2n[nH]c(Nc3cnc(C)cn3)c2C(N)=O)cc1OCc1ccc(F)c(Cl)c1 [Compound 150, 3-(3-((3-chloro-4-fluorobenzyl)oxy)-4-(ethylsulfonamido)phenyl)-5-((5-methylpyrazin-2-yl)amino)-1H-pyrazole-4-carboxamide] | > 30 | < 0.01
CCS(=O)(=O)Nc1ccc(-c2n[nH]c(Nc3cnc(C(C)(C)C)cn3)c2C(N)=O)cc1 [Compound 181, 5-((5-(tert-butyl)pyrazin-2-yl)amino)-3-(4-(ethylsulfonamido)phenyl)-1H-pyrazole-4-carboxamide] | > 30 | < 0.01
